Nine compounds from patent US8546376B2, “Pharmaceutical compounds” (Almac Discovery Limited, priority 2009, dated 2013) can be followed below.

Holding throughout (assay type): biochemical
In one assay the target is T1, AKT3 (Homo sapiens, UniProt Q9Y243).
T1 construct: purchased SignalChem
Description: AKT Kinase Assay (IMAP fluorescent polarisation) vs AKT3. The note with it: activated AKT3, FAM Crosstide substrate. The gist of the method: (§1)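 IC50 values came from non-linear regression of % inhibition relative to vehicle, measured by IMAP fluorescence polarisation (485/528 nm) after a 1 h room-temperature reaction of FAM-Crosstide and ATP. Each activated isoform was first exposed to compound for 45 min across fourteen half-log doses.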

For the next assay, the target named is T2, AKT2 (Homo sapiens, UniProt P31751).
T2 construct: purchased SignalChem
T2 sequence (P31751 whole entry): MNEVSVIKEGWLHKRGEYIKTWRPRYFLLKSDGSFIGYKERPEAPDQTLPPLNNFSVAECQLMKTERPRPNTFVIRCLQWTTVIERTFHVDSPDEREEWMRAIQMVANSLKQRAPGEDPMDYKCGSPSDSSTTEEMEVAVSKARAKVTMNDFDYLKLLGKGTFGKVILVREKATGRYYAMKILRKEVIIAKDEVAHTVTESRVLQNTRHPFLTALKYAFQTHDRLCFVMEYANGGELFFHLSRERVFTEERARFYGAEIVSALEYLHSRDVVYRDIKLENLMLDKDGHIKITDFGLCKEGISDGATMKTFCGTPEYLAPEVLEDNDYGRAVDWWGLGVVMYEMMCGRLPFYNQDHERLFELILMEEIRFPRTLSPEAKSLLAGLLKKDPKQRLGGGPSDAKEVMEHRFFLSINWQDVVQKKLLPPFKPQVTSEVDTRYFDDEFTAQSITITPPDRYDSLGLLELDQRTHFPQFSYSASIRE
Kind of assay: AKT Kinase Assay (IMAP fluorescent polarisation) vs AKT2. The settings on record: activated AKT2, FAM Crosstide substrate. The gist of the method:
as §1

A further assay concerns the target T3, AKT1 (Homo sapiens, UniProt P31749).
T3 construct: purchased SignalChem
Description: AKT Kinase Assay (IMAP fluorescent polarisation) vs AKT1. The settings on record: activated AKT1, FAM Crosstide substrate. The method in brief:
as §1

Structures can show the parent of a compound that is named as a salt. Some results are limits rather than exact numbers.

T3 sequence (P31749 whole entry): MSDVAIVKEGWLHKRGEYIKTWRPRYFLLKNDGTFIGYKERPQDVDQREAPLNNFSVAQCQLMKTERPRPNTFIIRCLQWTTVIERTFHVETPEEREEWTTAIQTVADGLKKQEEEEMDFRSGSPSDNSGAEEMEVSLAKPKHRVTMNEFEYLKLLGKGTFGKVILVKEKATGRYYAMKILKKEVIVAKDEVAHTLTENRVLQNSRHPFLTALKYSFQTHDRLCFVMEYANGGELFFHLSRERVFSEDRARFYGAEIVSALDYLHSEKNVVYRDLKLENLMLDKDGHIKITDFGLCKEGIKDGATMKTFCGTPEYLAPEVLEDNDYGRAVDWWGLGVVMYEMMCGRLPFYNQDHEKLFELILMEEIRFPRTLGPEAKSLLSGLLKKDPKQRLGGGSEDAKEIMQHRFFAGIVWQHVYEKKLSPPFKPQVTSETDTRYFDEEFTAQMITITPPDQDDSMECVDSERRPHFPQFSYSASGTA
T1 sequence (Q9Y243 whole entry): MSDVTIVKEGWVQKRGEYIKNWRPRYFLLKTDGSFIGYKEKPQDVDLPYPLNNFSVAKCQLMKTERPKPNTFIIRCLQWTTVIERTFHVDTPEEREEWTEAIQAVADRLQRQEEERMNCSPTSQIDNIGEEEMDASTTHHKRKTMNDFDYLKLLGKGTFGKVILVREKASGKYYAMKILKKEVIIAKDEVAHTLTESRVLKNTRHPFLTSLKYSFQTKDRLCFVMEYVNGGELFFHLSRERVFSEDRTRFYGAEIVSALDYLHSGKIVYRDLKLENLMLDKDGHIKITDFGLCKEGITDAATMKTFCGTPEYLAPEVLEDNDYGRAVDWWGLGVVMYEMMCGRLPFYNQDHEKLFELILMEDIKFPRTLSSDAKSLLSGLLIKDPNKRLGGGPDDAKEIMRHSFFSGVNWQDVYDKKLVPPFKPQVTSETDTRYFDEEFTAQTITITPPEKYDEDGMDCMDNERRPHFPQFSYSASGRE

Consider `COc1ccccc1-c1nccc2c(=O)c(-c3ccc(C4(N)CCC4)cc3)c(-c3ccccc3)oc12` [Example 118, 3-(4-(1-aminocyclobutyl)phenyl)-8-(2-methoxyphenyl)-2-phenyl-4H-pyrano[2,3-c]pyridin-4-one], for which the concentration for half-maximal inhibition (IC50) – broadly, the midpoint of a concentration-inhibition curve – on AKT3 is 1000 to 10000 nM; on AKT2, 1000 to 10000 nM; at AKT1, ≤ 1000 nM.
Turning to `COc1cc2c(=O)c(-c3ccc(C4(N)CCC4)cc3)c(-c3ccccc3)oc2cc1-c1ccn[nH]1` [Example 28, 3-[4-(1-Amino-cyclobutyl)-phenyl]-6-methoxy-2-phenyl-7-(2H-pyrazol-3yl)-chromen-4-one], the IC50 at AKT3 is > 10000 nM; at AKT2 it was 1000 to 10000 nM; at AKT1, > 10000 nM.
Take `Cc1c(-c2cccc3c(=O)c(-c4ccc(C5(N)CCC5)cc4)c(-c4ccccc4)oc23)cnn1C` [Example 75, 3-[4-(1-Amino-cyclobutyl)-phenyl]-8-(1,5-dimethyl-1H-pyrazol-4-yl)-2-phenyl-chromen-4-one hydrochloride]: the IC50 was 1000 to 10000 nM on AKT3, ≤ 1000 nM on AKT2 and ≤ 1000 nM at AKT1.
On to `COc1cc2c(=O)c(-c3ccc(C4(N)CCC4)cc3)c(-c3ccccc3)oc2cc1C(N)=O` [Example 29, 3-[4-(1-Amino-cyclobutyl)-phenyl]-6-methoxy-4-oxo-2-phenyl-4H-chromene-7-carboxylic acid amide], for which the figures for the IC50 on AKT3, at AKT2 and on AKT1 were > 10000 nM, ≤ 1000 nM and 1000 to 10000 nM, respectively.
Take `NC1(c2ccc(-c3c(-c4ccccc4)oc4cc(Br)ccc4c3=O)cc2)CCC1` [Example 13, 3-[4-(1-Amino-cyclobutyl)-phenyl]-2-phenyl-7-bromo-chromen-4-one]: the results for the IC50 at AKT3, on AKT2 and on AKT1 were > 10000 nM, 1000 to 10000 nM and 1000 to 10000 nM, respectively.
For the compound `NC1(c2ccc(-c3c(-c4ccccc4)oc4cc5c(cc4c3=O)OCCO5)cc2)CCC1` [Example 8, 7-[4-(1-Amino-cyclobutyl)-phenyl]-6-Phenyl-2,3-dihydro-1,4,5-trioxa-anthracen-8-one], the concentration for half-maximal inhibition (IC50) is > 10000 nM at AKT3, 1000 to 10000 nM at AKT2 and 1000 to 10000 nM at AKT1.
With `NC1(c2ccc(-c3c(-c4ccccc4)oc4c(CCCl)nccc4c3=O)cc2)CCC1` [Example 129, 3-(4-(1-aminocyclobutyl)phenyl)-8-(2-chloroethyl)-2-phenyl-4H-pyrano[2,3-c]pyridin-4-one], the figures for the half-maximal inhibitory concentration (IC50) on AKT3, on AKT2 and on AKT1 were 1000 to 10000 nM, ≤ 1000 nM and ≤ 1000 nM, respectively.
On to `NC1(c2ccc(-c3c(-c4ccccc4)oc4c(OCCO)nccc4c3=O)cc2)CCC1` [Example 125, 3-(4-(1-aminocyclobutyl)phenyl)-8-(2-hydroxyethoxy)-2-phenyl-4H-pyrano[2,3-c]pyridin-4-one], for which the IC50 at AKT3 is > 10000 nM; on AKT2, 1000 to 10000 nM; at AKT1, ≤ 1000 nM.
For `NC1(c2ccc(-c3c(-c4ccccc4)oc4cc(F)ccc4c3=O)cc2)CCC1` [Example 37, 3-[4-(1-Amino-cyclobutyl)-phenyl]-7-fluoro-2-phenyl-chromen-4-one hydrochloride], in that order: 1000 to 10000 nM, 1000 to 10000 nM and ≤ 1000 nM.
